From BigSolDB 2.1

CC(=O)c1ccc2cc(C)ccc2c1
Conditions | solubility (mole fraction)
in n-dodecane, 273.15 K | 0.00876
in n-dodecane, 279.65 K | 0.0122
in n-dodecane, 283.15 K | 0.0146
in n-dodecane, 288.15 K | 0.0188
in n-dodecane, 291.15 K | 0.022
in n-dodecane, 293.65 K | 0.0254
in n-dodecane, 296.65 K | 0.0291
in n-dodecane, 299.15 K | 0.0339
in n-dodecane, 301.65 K | 0.037
in n-dodecane, 305.15 K | 0.046
in n-dodecane, 308.15 K | 0.0535
in n-dodecane, 311.15 K | 0.0683
in n-heptane, 273.15 K | 0.00938
in n-heptane, 277.15 K | 0.0104
in n-heptane, 279.15 K | 0.0114
in n-heptane, 282.15 K | 0.013
in n-heptane, 285.15 K | 0.0151
in n-heptane, 288.15 K | 0.0177
in n-heptane, 291.15 K | 0.0217
in n-heptane, 294.15 K | 0.0258
in n-heptane, 297.15 K | 0.0293
in n-heptane, 299.65 K | 0.0345
in n-heptane, 303.15 K | 0.0428
in n-heptane, 306.15 K | 0.0484
in n-heptane, 309.15 K | 0.0566
in n-heptane, 311.15 K | 0.0629
in n-heptane, 313.15 K | 0.0716
in n-heptane, 316.15 K | 0.0852
in n-heptane, 319.15 K | 0.105
in n-octane, 273.15 K | 0.00895
in n-octane, 277.65 K | 0.0105
in n-octane, 283.15 K | 0.0139
in n-octane, 287.15 K | 0.0172
in n-octane, 291.15 K | 0.0211
in n-octane, 293.15 K | 0.0239
in n-octane, 297.15 K | 0.029
in n-octane, 301.15 K | 0.0371
in n-octane, 303.15 K | 0.0417
in n-octane, 306.65 K | 0.0487
in n-octane, 311.15 K | 0.0623
in n-octane, 314.15 K | 0.0755
in n-octane, 316.15 K | 0.0861
in n-octane, 319.15 K | 0.106

CC(=O)c1ccc2ccc(C)cc2c1
solubility (mole fraction)
Conditions | in n-dodecane | in n-heptane | in n-octane
273.15 K | 0.00013 | 0.000115 | 0.000114
275.15 K | 0.000135 | 0.000124 | –
276.15 K | – | – | 0.00013
277.15 K | – | 0.000138 | –
278.15 K | 0.000158 | – | –
279.15 K | – | 0.000157 | 0.000152
281.15 K | 0.000195 | – | 0.000172
282.15 K | – | 0.000182 | –
283.15 K | 0.000205 | – | –
284.15 K | – | – | 0.000194
286.15 K | 0.000239 | 0.000228 | –
287.15 K | – | – | 0.000231
289.15 K | 0.000287 | 0.000268 | 0.000254
291.15 K | – | 0.000297 | –
292.15 K | 0.000339 | – | 0.000291
293.15 K | – | 0.000344 | –
295.15 K | 0.00041 | – | 0.000343
297.15 K | 0.000454 | – | 0.000387
300.15 K | 0.000526 | – | –
